# Source: patent publication US20130025073A1, “DETERGENT COMPOSITIONS” (priority 2011, published 2013)
# Target: T1, Protease (Purafect Prime®) (Bacillus amyloliquefaciens, UniProt P00782, Y324L)
# T1 construct: purchased Genencor International, Palo Alto Purafect Prime®
# Assay: Stability of Protease in amine neutralized-anionic surfactant-containing detergent (Example 10) after incubation
# Assay type: physicochemical
# Conditions: Detergent example 10, pH 8.2, 3 weeks and 6 weeks 30° C., versus a nil PBA reference
# Protocol: Test of stability of Protease in an Amine Neutralized-Anionic Surfactant-Containing Detergent after Incubation in Detergent, Example 10, at pH 8.2
# A detergent composition, example 10, nil enzyme, nil calcium chloride dihydrate and nil phenylboronic acid (PBA), balanced to pH 8.2 using monoethanolamine, was prepared.
# The protease, that sold under the trade name of Purafect Prime®, by Genencor International, Palo Alto (38.7 mg active Protease protein in 100 g detergent), was added to the above detergent. Each detergent sample was determined for the initial residual enzyme activity before incubation (Initial reference samples).
# The residual enzyme activity for each sample was determined after incubation at 30° C. for 3 weeks and 6 weeks and compared to their reference sample. The residual activity was determined using the standard enzyme activity assays for the relevant enzyme.
# Detergent formulations A-D, 5 g pH 8.2, were placed in duplicate into a 7 ml glass vial with an air tight lid. The residual enzyme activity was determined for the initial samples, in duplicate, before incubation.
# The samples were placed into an incubator for 3 weeks and 6 weeks at 30° C. Immediately after incubation, the samples were analysed for both residual Protease. In this test the residual activity of 100% equals no loss of Protease activity compared to initial residual enzyme activity before incubation.
# T1 sequence (P00782 108-382 Y324L): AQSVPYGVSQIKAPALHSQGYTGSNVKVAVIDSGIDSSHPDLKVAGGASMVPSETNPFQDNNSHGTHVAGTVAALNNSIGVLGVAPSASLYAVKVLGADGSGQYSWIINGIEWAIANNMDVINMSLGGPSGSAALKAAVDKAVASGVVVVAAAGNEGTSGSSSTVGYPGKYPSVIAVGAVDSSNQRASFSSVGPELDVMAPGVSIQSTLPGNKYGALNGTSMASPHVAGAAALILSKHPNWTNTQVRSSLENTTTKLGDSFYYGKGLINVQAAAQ
smiles,measurement,value
"OB(O)c1ccccc1 [PBA, phenylboronic acid]",Effect of PBA addition on stability of the Protease,significantly improves stability of the Protease
